Test [1] deals with Kallikrein 8. Nature of the test: Kallikrein 8 ELISA in human normal keratinocytes. To be noted: 4 days stimulation (FIG. 14). Type of test: cell-based. The method, then: (§1) Keratinocytes were cultured in commercially available keratinocyte medium M154 (Cascade Biologics/Invitrogen) # M154500 with a final calcium […]. Supplements were added meeting following final concentrations of growth factors; bovine pituitary extract (BPE), 0.2% v/v·bovine insulin, 5 μg/ml·hydrocortisone, 0.18 μg/ml·bovine transferrin, 5 μg/ml·human epidermal growth factor, 0.2 ng/ml.
Keratinocytes used for Kallikrein 8 experiments were cultured as described in example 2.1. Experiments were performed in monolayers with 80% confluence. The cells were stimulated for 4 days prior to kallikrein 8 analysis with the different actives and then culture supernatant were collected and stored in −20° C. until further analysis. Kallikrein 8 production was analysed in cell culture supernatants from stimulated keratinocytes using a ELISA assay specific for Kallikrein 8 (Uscn Life Science Inc, E90690Hu). Results were compared with cell culture supernatants from DMSO vehicle treated cells. The assays utilized a 96-well microplate format and were processed according to the manufacturer's protocol, including generation of a standard curve prepared in background assay diluents. Absorbance of the assay dye was read at a Synergy HT plate reader. Values that fell within the linear range of the calibration assay were accepted. Quantities were determined by comparison to standard curves obtained for KLK8.

Test [2] has as its system tachykinin, precursor 1 (TAC1). Nature of the test: Affymetrix gene array on skin explants, TAC1. The class given is cell-based, human. To be noted: topical, 24 hours. The source says:
(§2) Subcutaneous fat from full thickness skin, obtained from surgical waste material from breast reduction procedures, was removed with a scalpel. Three healthy Caucasian female donors were used for this study. The female donors differed from those of the skin-treatment study outlined previously 8 mm punch biopsies were taken from the skin (and these biopsies are now referred to as skin explants). Skin explants were put on Milipore cell culture inserts (12 mm diameter). Inserts containing skin explants were put in 6-well plates (one insert/well) and 1 mL of supplemented keratinocyte medium (ex Cascade Biologics) was added to each well. A tretinoin-containing cream (Aberela® ex. Janssen): 0.05% tretinoin in the cream, was applied topically to each explant (5 μL/cm^2) using a positive displacement pipette. A placebo cream without tretinoin was used as a control. The skin explants were incubated with tretinoin for 24 hours at 37° C. in 5% CO2-humidified air.
(§3) RNA concentration was measured with ND-1000 spectrophotometer (ex. NanoDrop Technologies) and RNA quality was evaluated using the Agilent 2100 bioanalyzer system (ex. Agilent Technologies). 250 nanograms of total RNA from each skin or skin explant sample was used to prepare biotinylated fragmented cRNA according to the GeneChip® 3′IVT Express Kit Manual (PN702646 Rev 1, ex. Affymetrix Inc.). Affymetrix GeneChip® expression arrays (Human Genome U133 Plus 2.0) were hybridized for 16 hours in a 45° C. incubator, rotated at 60 rpm. According to the GeneChip Expression Wash, Stain and Scan Manual (PN 702731 Rev 2, ex. Affymetrix Inc.) the arrays were washed and stained using the Fluidics Station 450 and scanned using the GeneChip® Scanner 3000 7G.
(§4) Analysis of the gene expression data was carried out in the statistical computing language R (http://www.r-project.org) using packages available from the Bioconductor project (www.bioconductor.org). The raw data was normalized using the robust multi-array average (RMA) method. In order to search for differentially expressed genes between the X samples and the Y samples group an empirical Bayes moderated t-test was then applied using the ‘limma’ package.
(§5) Skin explants were obtained as detailed in Example 3.1.

Test [3] concerns hydroxysteroid (17-beta) dehydrogenase 2 (HSD17B2). Nature of the test: Affymetrix gene array on skin explants, HSD17B2. Type of test: cell-based, human. Particulars: topical, 24 hours.
Excerpt: as §2, §3, §4, §5

The test system of test [4] is MMP1. Nature of the test: PMA inflammation induced MMP1 production in human dermal fibroblasts. Type of test: cell-based. Particulars: for inhibition of PMA inflammation induced MMP1 production: human dermal fibroblasts, PMA 10 nM, 24 h (FIG. 3); for MMP production: summary of FIGS. 2, 3 and 4 (UV skin explants and PMA dermal fibroblasts). On the procedure: MMP-inhibitory activity for compounds of the invention was also assessed on human dermal fibroblasts. Dermal fibroblasts were cultured in Dulbecco's Modified Eagle Medium (DMEM) (Invitrogen) with 10% EBS (ex. Invitrogen) and 1% Pencillin/Streptavidin (ex. Invitrogen). To induce inflammation in the cells, PMA (phorbol myristate acetate) (ex. Sigma) was used at a concentration of 10 nM. […] The cells were stimulated for 24 h and the culture supernatant was collected and stored at −20° C. until further analysis. Fluorokine MultiAnalyte Profiling (xMAP) using the BioPlex (ex. Biorad) dual laser flow-based sorting and detection analyzers manufactured by Luminex corporation (Luminex, Austin, Tex.) was employed to measure levels of MMP in conditioned media samples of stimulated dermal fibroblasts. The technology incorporated polystyrene microspheres dyed internally with differing ratios of two spectrally distinct fluorophores to create a family of different spectrally addressed bead sets. The bead utilized in this study was conjugated with a biotinylated capture antibody specific for a unique MMPs, The assay was performed without antecedent serum depletion. Results were compared with medium from cells treated with vehicle only (DMSO). The assays utilized a 96-well microplate format and were processed according to the manufacturer's protocol, including generation of a standard curve for each target prepared in background assay diluents. Values that fell within the linear range of the calibration assay were accepted. Samples were analyzed using the Bio-Plex suspension array system and Bio-Plex Manager software 4.0 (Bio-Rad Laboratories, Hercules, Calif.). Quantities were determined by comparison to standard curves obtained for the different MMP.

In test [5] the test system is steroid 5 alpha-reductase 3 (SRD5A3). The test can be described thus: Affymetrix gene array on skin explants, SRD5A3. The class given is cell-based, human. Particulars: topical, 24 hours.
Excerpt: as §2, §3, §4, §5

For test [6], the system named is Keratin 1/10. Nature of the test: Keratin 1/10 production in human normal keratinocytes. The class given is cell-based. Particulars: for synthesis of Keratin 1/10: human normal keratinocytes (FIG. 15). On the procedure: as §1
Medium was changed every other day. Cells were grown to 80% confluence prior stimulation with compounds. Experiments were performed in 24-well plates. The cells were treated with individual compounds of the invention for 6 days. After 3 days the medium was refreshed. A source of calcium ions was used as a positive control. After 6 days tissue culture medium was stored in −20° C. until analysis.
Cells were cultured as described in Example 5.1. and the methodology described in Example 3.1 was adapted in order analyze keratin 1/10 production.

Test [7] concerns interleukin-6 [IL-6]. The test can be described thus: Interleukin-6 production in PMA-stimulated dermal fibroblasts. Type of test: cell-based, human. Particulars: PMA 10 nM (FIG. 7). The method, then: Human dermal fibroblast cell cultures were prepared according to Example 3.1. To induce inflammation in the cells PMA (phorbol myristate acetate) (ex. Sigma) was used at a concentration of 10 nM. […] The cells were stimulated for 24 h and the culture supernatant was collected and stored at −20° C. until further analysis
Experimental method as outlined in Example 3.1 was modified in order to analyze IL-6 levels extracted from dermal fibroblasts stimulated for 6 days with all-trans retinoic acid, retinol, arachidonic acid, β-aescin, and […] (ethyl ester) at a range of concentrations. Experiments were performed in duplicates.

As for `O=C1C[C@@H](c2ccc(O)cc2)Oc2cc(O)cc(O)c21` [Naringenin, (S)-2,3-Dihydro-5,7-dihydroxy-2-(4-hydroxyphenyl)-4H-1-benzopyran-4-one], in test [1], the “synthesis of kallikrein 8” value is on record as “significant increase in the synthesis of kallikrein 8”. Further, the TAC1 gene expression in test [2] is on record as −2.78 log 2−ratio. Further, the HSD17B2 gene expression in test [3] is −0.83 log 2−ratio. In test [4], the “inhibition of PMA inflammation induced MMP1 production” value was “inhibition” and the MMP production result was “ability to inhibit MMP production”. The SRD5A3 gene expression in test [5] came out at 1.25 log 2−ratio. Besides, in test [6] (150 microM), the “synthesis of Keratin 1/10” value was “significant increase in the synthesis of Keratin 1/10”. The interleukin-6 production entry in test [7] is given as “inhibit interleukin-6 production”.
On to `CC(=O)N[C@@H](CC(=O)O)C(=O)O` [N-Acetyl aspartic acid, (2S)-2-Acetamidobutanedioic acid], for which, in test [1], the “synthesis of kallikrein 8” value is “significant increase in the synthesis of kallikrein 8”. This compound yielded a TAC1 gene expression in test [2] of −1.23 log 2−ratio. Moreover, in test [3], the HSD17B2 gene expression was −1.46 log 2−ratio. In test [4], the “inhibition of PMA inflammation induced MMP1 production” value is on record as “inhibition” and the MMP production entry is on record as “ability to inhibit MMP production”. Moreover, the SRD5A3 gene expression in test [5] is reported as −1.54 log 2−ratio. Also, in test [6] (concentration not given), the “production of Keratin 1/10” value is “stimulate production of Keratin 1/10”. Further, in test [7], the interleukin-6 production result was “inhibit interleukin-6 production”.
Consider `C=C1C[C@]23C[C@@]1(O)CC[C@H]2[C@@]12C=C[C@H](O)[C@@](C)(C(=O)O1)[C@@H]2[C@@H]3C(=O)O` [Gibberellic acid, (3S,3aS,4S,4aS,7S,9aR,9bR,12S)-7,12-dihydroxy-3-methyl-6-methylene-2-oxoperhydro-4a,7-methano-9b,3-propenoazuleno[1,2-b]furan-4-carboxylic acid], for which the “synthesis of kallikrein 8” value in test [1] was “significant increase in the synthesis of kallikrein 8”. This compound displayed a TAC1 gene expression in test [2] of −0.62 log 2−ratio. For the same compound, in test [3], the HSD17B2 gene expression was −0.52 log 2−ratio. Also, in test [4], the “inhibition of PMA inflammation induced MMP1 production” value was “inhibition” and the MMP production entry is listed as “ability to inhibit MMP production”. This compound also gave an SRD5A3 gene expression in test [5] of −0.75 log 2−ratio. Also, the “synthesis of Keratin 1/10” value in test [6] (1.2 microM) was “significant increase in the synthesis of Keratin 1/10”. In test [7], the interleukin-6 production entry is “inhibit interleukin-6 production”.

The values are drawn from US20140301961A1, “COMPOUNDS WITH ANTI-AGING ACTIVITIES” (priority 2011, published 2014).
